Measurements reported in patent publication US6916805B2, “Quinoxalinones as serine protease inhibitors” (Warner-Lambert Company LLC, priority 1998, dated 2005).
Values belong to the molecule of their own block, whether it stands above or below them.

Key:
[1] = system: human trypsin; test: Trypsin IC50, cleavage of S2222; assay type: biochemical
Description: The ability of compounds to act as inhibitors of human trypsin catalytic activity is assessed by determination of that concentration of test substance that inhibits by 50% (IC50) the ability of human trypsin to cleave the chromogenic substrate S2222 (N-Bz-L-Ile-L-Glu-L-Gly-L-Arg-p-nitroanilide. HCl, DiaPharma). Typically, 145 μL human trypsin (0.5 nM final) in 10 mM HEPES, 150 mM NaCl, 0.1% BSA, and 5 μL of the test substance in DMSO (2% final) are incubated for 60 minutes at room temperature. Following preheating to 37° C. for 5 minutes, to this mixture is added 100 μL of S2222 in HBSA buffer (100 μM final), and the velocity of S2222 hydrolysis is determined at 37° C. by measuring the optical density at OD405 nm every 10 seconds over 5 minutes using a ThermoMax® Kinetic Microplate Reader.

[2] = molecular target: T1, human thrombin (Homo sapiens, UniProt P00734); test: Thrombin IC50, cleavage of Chromozym TH; assay type: biochemical
T1 construct: purchased Enzyme Research Laboratories
Description: The ability of compounds to act as inhibitors of human thrombin catalytic activity is assessed by determination of that concentration of test substance that inhibits by 50% (IC50) the ability of human thrombin to cleave the chromogenic substrate Chromozym TH (Tosyl-Gly-Pro-Arg-pNA*Ac, Boehringer Mannheim). Typically, 145 μL human thrombin (0.75 nM, Enzyme Research Laboratories) in a HPB buffer (10 mM HEPES, 100 mM NaCl, 0.05% BSA, 0.1% PEG-8000, pH 7.4) and 5 μL of test substance in DMSO (2% final) are incubated for 60 minutes at room temperature. Following preheating to 37° C. for 5 minutes, to this mixture is added 100 μL of Chromozym TH in HPB buffer. The velocity of Chromozym TH hydrolysis is determined at 37° C. by measuring the initial rate of change of the optical density at OD405 nm every 10 seconds for 5 minutes using a ThermoMax® Kinetic Microplate Reader.

[3] = molecular target: T2, human tissue factor/factor VIIa complex (Homo sapiens, UniProt P08709); test: Tissue factor/factor VIIa inhibition, cleavage of Spectrozyme VIIa; assay type: biochemical; details: read-out: VIIa % inhib. @ 100 μM
T2 construct: 50 μL human factor VIIa (Enzyme Research Laboratories); purchased Enzyme Research Laboratories (factor VIIa); American Diagnostica (recombinant tissue factor)
Description: The ability of compounds to act as inhibitors of the catalytic activity of human tissue factor/factor VIIa complex is assessed by determination of that concentration of test substance that inhibits by 50% (IC50 the ability of a complex of human recombinant tissue factor/factor VIIa to cleave the chromogenic substrate Spectrozyme VIIa (CH3SO2-D-CHA-Arg-pNA*AcOH, American Diagnostica). Typically, 50 μL human factor VIIa (Enzyme Research Laboratories) is incubated for 10 minutes as a 1:1 mixture (5 nM final each) with 95 μL recombinant human tissue factor (American Diagnostica) in a modified HBSA buffer (10 mM Hepes, 5 mM CaCl2, 0.1% BSA, pH 8.0). Then, 5 μL of the test substance in DMSO (2% final) is added and incubated for 60 minutes at room temperature. Following preheating to 37° C. for 5 minutes, to this mixture is added 100 μL of Spectrozyme VIIa (500 μM final) in modified HBSA, and the velocity of Spectrozyme VIIa hydrolysis is determined at 37° C. by measuring the optical density at an OD405 nm every 10 seconds over 5 minutes using a ThermoMax® Kinetic Microplate Reader.

[4] = molecular target: T3, human factor Xa (Homo sapiens, UniProt P00742); test: Factor Xa IC50, cleavage of chromogenic substrate S2765; assay type: biochemical
T3 construct: 145 μL human factor Xa (1 nM final, Enzyme Research Laboratories); purchased Enzyme Research Laboratories
Description: The ability of compounds to act as inhibitors of human factor Xa catalytic activity is assessed by determination of that concentration of test substance that inhibits by 50% (IC50) the ability of human factor Xa to cleave the chromogenic substrate S2765 (N-CBz-D-Arg-L-Gly-L-Arg-p-nitroanilide. 2HCl, DiaPharma). Typically, 145 μL human factor Xa (1 nM final, Enzyme Research Laboratories) in 10 mM HEPES, 150 mM NaCl, 0.1% BSA, pH 7.4 (HBSA buffer), and 5 μL of test substance in DMSO (2% final) are incubated for 60 minutes at room temperature. Following preheating to 37° C. for 5 minutes, to this mixture is added 100 μL of S2765 in HBSA buffer. The velocity of S2765 hydrolysis is determined at 37° C. by measuring the initial rate of change of the optical density at OD405 nm every 10 seconds for 5 minutes using a ThermoMax® Kinetic Microplate Reader.

[5] = system: pooled plasma from human volunteers; test: In vitro diluted prothrombin time (dPT) assay; assay type: biochemical
Description: Rat, rabbit, dog, and human blood (typically 1.8 mL) was collected and added to a sodium citrate solution (3.8%) to afford a 1:10 dilution. After centrifugation (2000 g for 10 minutes), the blood plasma was stored at −70° C. to 0° C. Conventional prothrombin time (PT) tests were carried out in the presence of various concentrations of test compound and the concentration of test compound required to double the clotting time determined. Typically, the test compound (50 μL volume of varying concentrations 0.1 μM to 1000 μM) and blood plasma (100 μL volume) were incubated at 37° C. for 10 minutes, and then tissue thromboplastin, typically Neoplastine from American Bioproducts, with calcium was added. Fibrin formation and the time required for a clot to form were determined using an automated ST4 Clot Detection System in duplicate.
The effects of Example 2 on dPT were evaluated using pooled plasma from human volunteers.

[6] = system: dog electrolytic injury model of thrombosis; test: Dog electrolytic injury model of thrombosis; assay type: in vivo
Description: The effects of Example 2 on thrombosis and hemostasis has been studied in a dog electrolytic injury model of thrombosis. In this model, the thrombosis influencing event is an electrical current is applied to the femoral vein (or artery) by applying an anodal direct current (300 uA) to the intimal surface of the vessel in the presence of restricted blood flow (Goldblatt clamps placed around the vessel). The end points of the experiment are the time to occlusion (TTO) and thrombus weight. […] In the highest dose group, TTO was increased to near maximal effect of 240 minutes in both arteries and veins. The net thrombus weight was reduced from 50 mg to 18 mg [artery] and 110 mg to 15 mg [vein] in the highest dose group. Example 2, at the highest dose, prolonged aPTT, PT, by 1.4-, and 1.75-fold, respectively.

[7] = molecular target: T4, human prothrombinase (PTase) complex (Homo sapiens, UniProt P00742); test: In vitro assay for human prothrombinase; assay type: biochemical; details: PTase activity expressed by thrombin activity
T4 construct: 2.5 pM human factor Xa (Enzyme Research Laboratories); purchased Enzyme Research Laboratories
Description: For determination of IC50 (PTase) of the compounds of the invention, PTase activity was expressed by thrombin activity.
PTase reaction was performed in 100 μL of mixture containing PTase (20 μM) PCPS (Avanti Polar Lipids following a procedure modified from Barenholz et al., Biochemistry, 1977;16:2806-2810) in a 30:70 ratio, 2.5 nM human factor Va (Enzyme Research Laboratories), and 2.5 pM human factor Xa (Enzyme Research Laboratories) in modified HEPES buffer (10 mM Hepes, 150 mM NaCl, 0.1% PEG-8000, 0.05% BSA, 2.5 mM CaCl2, pH 7.4), 3 μM human prothrombin (Enzyme Research Laboratories) and varied concentrations of the test compounds (1 nM to 100 μM in DMSO, 2% final). Reaction was started by co-incubating PTase with test compound for 60 minutes at room temperature, followed by addition of prothrombin for 6 minutes at room temperature. Next, the reaction was quenched by the addition of 100 μL of 20 mM EDTA. Activity of the thrombin (product) is then measured in the presence of 50 μL S2238 (250 μM final, H-D-Phe-Pip-Arg-pNA*Ac, DiaPharma) as substrate by measuring the change at 37° C. in OD405 nm for 5 minutes at 10 second intervals using a ThermoMax® Kinetic Microplate Reader.

[8] = system: rabbit veno-venous shunt model of thrombosis; test: Rabbit veno-venous shunt model of thrombosis; assay type: in vivo
Description: The effects of Example 2 on thrombosis and hemostasis has been studied in a rabbit veno-venous shunt model of thrombosis. In that model, a plastic shunt which contains cotton thread was inserted into abdominal vena cava and thrombus developed inside the shunt under control conditions. The end points of the experiment are the time to occlusion (TTO) and thrombus weight. Example 2 was given to the rabbit via jugular vein as a single bolus followed by constant infusion for 140 minutes. Three doses have been tested in a total of 15 rabbits (5 rabbits in each group): 30 μg/kg+1 μg/kg/min, 60 μg/kg+2 μg/kg/min, and 480 μg/kg+16 μg/kg/min. […] In the highest dose group, TTO was increased from 17 minutes under control condition to 100 minutes. The net thrombus weight was reduced from 50 to 20 mg in that group. Example 2, at the highest dose, prolonged aPTT, PT, by 5-, and 3.9-fold, respectively.

[9] = infusion 2.5, 5 and 10 μg/kg/min
[10] = three doses, bolus + infusion 140 minutes

T2 sequence (P08709 213-466 limits assumed): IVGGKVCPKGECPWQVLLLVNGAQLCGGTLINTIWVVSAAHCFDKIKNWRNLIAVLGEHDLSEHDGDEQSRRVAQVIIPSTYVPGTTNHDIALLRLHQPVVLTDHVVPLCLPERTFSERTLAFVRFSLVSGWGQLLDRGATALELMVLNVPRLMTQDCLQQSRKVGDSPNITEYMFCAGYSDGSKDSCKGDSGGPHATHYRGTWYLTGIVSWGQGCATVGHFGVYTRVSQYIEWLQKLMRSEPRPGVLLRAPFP
T2 sequence (P08709 61-212 limits assumed): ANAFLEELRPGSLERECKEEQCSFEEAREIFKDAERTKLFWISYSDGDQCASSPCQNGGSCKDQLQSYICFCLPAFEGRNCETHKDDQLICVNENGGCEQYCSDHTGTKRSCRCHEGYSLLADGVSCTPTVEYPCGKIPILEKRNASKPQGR
T2 sequence (P13726 33-295 partner): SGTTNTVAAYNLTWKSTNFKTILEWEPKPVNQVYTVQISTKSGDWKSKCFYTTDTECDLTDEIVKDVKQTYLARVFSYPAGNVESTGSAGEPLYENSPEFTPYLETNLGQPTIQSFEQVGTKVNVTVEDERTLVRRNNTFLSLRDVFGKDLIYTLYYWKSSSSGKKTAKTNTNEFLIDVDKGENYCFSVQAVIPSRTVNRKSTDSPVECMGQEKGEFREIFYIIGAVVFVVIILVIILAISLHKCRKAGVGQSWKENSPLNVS
T3 sequence (P00742 235-488 limits assumed): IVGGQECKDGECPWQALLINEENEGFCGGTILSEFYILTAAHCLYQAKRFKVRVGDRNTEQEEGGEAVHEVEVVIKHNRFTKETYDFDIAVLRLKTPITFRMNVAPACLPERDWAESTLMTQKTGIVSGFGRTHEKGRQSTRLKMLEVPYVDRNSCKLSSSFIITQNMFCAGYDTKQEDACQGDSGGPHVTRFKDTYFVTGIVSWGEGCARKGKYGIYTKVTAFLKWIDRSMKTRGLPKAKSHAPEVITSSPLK
T3 sequence (P00742 41-179 limits assumed): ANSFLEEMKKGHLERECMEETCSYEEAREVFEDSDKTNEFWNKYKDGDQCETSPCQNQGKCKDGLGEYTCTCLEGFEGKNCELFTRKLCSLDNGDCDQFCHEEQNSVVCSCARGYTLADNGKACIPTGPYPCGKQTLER
T4 sequence (P00742 235-488 limits assumed): as the sequence (P00742 235-488 limits assumed) above
T4 sequence (P00742 41-179 limits assumed): as the sequence (P00742 41-179 limits assumed) above
T4 sequence (P12259 29-737 partner limits assumed): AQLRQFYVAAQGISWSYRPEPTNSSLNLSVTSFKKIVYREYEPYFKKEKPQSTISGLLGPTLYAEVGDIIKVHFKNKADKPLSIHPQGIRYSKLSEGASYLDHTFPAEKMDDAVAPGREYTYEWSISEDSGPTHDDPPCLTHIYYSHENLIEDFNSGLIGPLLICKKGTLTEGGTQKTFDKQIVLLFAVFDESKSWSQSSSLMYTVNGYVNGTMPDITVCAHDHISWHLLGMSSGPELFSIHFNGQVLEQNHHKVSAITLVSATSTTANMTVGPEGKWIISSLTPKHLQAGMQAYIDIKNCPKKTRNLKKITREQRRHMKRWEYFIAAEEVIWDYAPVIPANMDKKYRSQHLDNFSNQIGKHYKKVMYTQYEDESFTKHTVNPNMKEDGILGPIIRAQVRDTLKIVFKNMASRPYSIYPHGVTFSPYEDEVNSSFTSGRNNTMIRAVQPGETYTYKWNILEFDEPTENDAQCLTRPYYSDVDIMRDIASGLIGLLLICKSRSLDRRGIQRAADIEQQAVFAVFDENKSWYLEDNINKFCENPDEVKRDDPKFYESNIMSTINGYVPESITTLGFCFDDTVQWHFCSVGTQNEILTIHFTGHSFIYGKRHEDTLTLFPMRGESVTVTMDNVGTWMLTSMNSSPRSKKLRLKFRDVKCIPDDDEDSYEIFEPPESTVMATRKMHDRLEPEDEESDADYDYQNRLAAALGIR
T4 sequence (P12259 1574-2224 partner limits assumed): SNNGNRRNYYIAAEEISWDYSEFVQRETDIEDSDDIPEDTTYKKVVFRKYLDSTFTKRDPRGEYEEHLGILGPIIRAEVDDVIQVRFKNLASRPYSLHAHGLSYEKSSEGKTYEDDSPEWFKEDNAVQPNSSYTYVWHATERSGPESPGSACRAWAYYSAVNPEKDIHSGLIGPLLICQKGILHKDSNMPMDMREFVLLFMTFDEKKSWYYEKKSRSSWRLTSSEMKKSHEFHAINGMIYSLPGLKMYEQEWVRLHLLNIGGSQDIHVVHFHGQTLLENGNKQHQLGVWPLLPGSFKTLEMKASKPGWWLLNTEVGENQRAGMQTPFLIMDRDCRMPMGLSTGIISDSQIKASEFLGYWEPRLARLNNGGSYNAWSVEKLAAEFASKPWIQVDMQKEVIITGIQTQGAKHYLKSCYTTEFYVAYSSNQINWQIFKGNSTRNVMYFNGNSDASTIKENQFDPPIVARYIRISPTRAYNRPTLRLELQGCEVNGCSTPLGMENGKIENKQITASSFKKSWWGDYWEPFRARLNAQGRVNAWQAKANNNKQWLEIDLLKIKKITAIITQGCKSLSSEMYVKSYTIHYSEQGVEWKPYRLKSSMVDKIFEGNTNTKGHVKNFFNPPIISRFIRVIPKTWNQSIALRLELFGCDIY

IC50 [1]: 2.03 µM | IC50 [2]: 2.96 µM | inhibition at 100 µM [3]: 16% | IC50 [4]: 0.065 µM
Structure (SMILES): C[C@@H]1CCC[C@H](C)N1CCCCCn1c(=O)c(-c2cccc(C(=N)N)c2)nc2ccccc21 [Example 1, 3-[3-(Amidino)phenyl]-1-{5-[(2R,6S)-2,6-dimethylhexahydro-1-pyridinyl]pentyl}-1,2-dihydro-2-quinoxalinone]

IC50 [1]: 2.45 µM | IC50 [2]: 7.02 µM | inhibition at 100 µM [3]: 13% | IC50 [4]: 0.009 µM | IC50 [7]: 0.0015 µM
Structure (SMILES): C[C@@H]1CCC[C@H](C)N1CCCCCn1c(=O)c(-c2cc(C(=N)N)ccc2O)nc2ccccc21 [Example 2, 3-(4-5-[(2R,6S)-2,6-dimethyltetrahydro-1(2H)-pyridinyl]pentyl-3-oxo-3,4-dihydro-2-quinoxalinyl)-4-hydroxybenzenecarboximidamide]
concentration which caused 2 fold prolongation of dPT [5]: 0.05 µM | fold increase in dPT ([5]; 0.1 μM): 3.2 fold | effect on dPT ([5]; over concentrations): concentration-dependently prolonged dPT | prolongation of PT ([6]; highest dose): 1.75 fold | prolongation of aPTT ([6]; highest dose): 1.4 fold | time to occlusion (TTO) ([6]; highest dose 10 μg/kg/min infusion, both arteries and veins): ~240 min | net thrombus weight [artery] ([6]; highest dose 10 μg/kg/min, artery, control 50 mg): 18 mg | net thrombus weight [vein] ([6]; highest dose 10 μg/kg/min, vein, control 110 mg): 15 mg | effect on net thrombus weight [6, 9]: reduced the net thrombus weight | effect on time to occlusion [6, 9]: dose-dependently prolonged the time to occlusion | prolongation of PT ([8]; highest dose): 3.9 fold | prolongation of aPTT ([8]; highest dose): 5 fold | net thrombus weight ([8]; highest dose 480 μg/kg + 16 μg/kg/min iv, control 50 mg): 20 mg | time to occlusion (TTO) ([8]; highest dose 480 μg/kg + 16 μg/kg/min iv, control 17 minutes): 100 min | effect on net thrombus weight [8, 10]: reduced the net thrombus weight | effect on time to occlusion [8, 10]: dose-dependently prolonged the time to occlusion
